Test results as given in ChEMBL document CHEMBL3045341, “Triterpene saponins of Quillaja saponaria show strong aphicidal and deterrent activity against the pea aphid Acyrthosiphon pisum” (2012).
≈ marks a conversion by molar mass, not a printed value.

Tests used:
Format in all cases: functional
Settings in all cases: 72 h
[1] = test system: Acyrthosiphon pisum; assay: Insecticidal activity against Acyrthosiphon pisum (pea aphid) assessed as mortality at 5 mg/ml after 3 days by no-choice assay
[2] = test system: Acyrthosiphon pisum; assay: Insecticidal activity against Acyrthosiphon pisum (pea aphid) assessed as mortality at 1 mg/ml after 3 days by no-choice assay
[3] = test system: Acyrthosiphon pisum; assay: Insecticidal activity against Acyrthosiphon pisum (pea aphid) after 3 days by no-choice assay

| Compound | mortality at 5000 µg/mL [1] [%] | mortality at 1000 µg/mL [2] [%] | LC50 [3] [mg/L] |
| --- | --- | --- | --- |
| C[C@@H]1CC[C@@]2(OC1)O[C@H]1C[C@H]3[C@@H]4CC=C5C[C@@H](O)CC[C@]5(C)[C@H]4CC[C@]3(C)[C@H]1[C@@H]2C [DISOGENIN] | 18 | – | – |
| C[C@@H]1CC[C@@]2(OC1)O[C@H]1[C@@H](O)[C@H]3[C@@H]4CC[C@H]5C[C@@H](O[C@@H]6O[C@H](CO)[C@H](O[C@@H]7O[C@H](CO)C(O)[C@H](O[C@@H]8OC[C@@H](O)[C@H](O)[C@H]8O)[C@H]7O[C@@H]7O[C@H](CO)[C@H](O)[C@H](O[C@@H]8O[C@H](CO)[C@@H](O)[C@H](O)[C@H]8O)[C@H]7O)[C@H](O)[C@H]6O)[C@H](O)C[C@]5(C)[C@H]4CC[C@]3(C)[C@H]1[C@@H]2C (some centres undefined) [DIGITONIN] | 14 | 76 | 0.45 (≈ 0.366 µM) |
